In one assay the test system is MAX1-Os900. The assay is described as follows: qRT-PCR of MAX1-Os900 gene expression in rice roots after zaxinone treatment. The conditions noted are these: −Pi, 6 h. It is filed as in vivo, rice (Oryza sativa Nipponbare). Here is the method: For the analysis of SL transcript levels in the zas mutant, one week-old seedlings were grown hydroponically in half-strength modified Hoagland nutrient solution with K2HPO4·2H2O (+Pi) and without K2HPO4·2H2O (−Pi) for 7 days. Seedlings were further treated with zaxinone for 6 h and tissues were collected.
Total RNA was extracted from the roots and shoots using a Qiagen Plant RNeasy Kit according to the manufacturer's instruction. cDNA was synthesized from 1 μg of total RNA using iScript cDNA Synthesis Kit (BIO-RAD Laboratories, Inc, 2000 Alfred Nobel Drive, Hercules, CA, Cat. No #170-8890) according to instructions in the user manual. For mycorrhizal samples, single-strand cDNA was synthesized from 1 μg of total RNA using Super-Script II (Invitrogen) according to instructions in the user manual. Primers used for real-time quantitative RT-PCR (qRT-PCR) analysis are listed below in Table 3. qRT-PCR was performed using SYBR Green Master Mix (Applied Biosystems; www.lifetechnologies.com) in a StepOnePlus (Life Technologies, Carlsbad, CA, USA). For mycorrhizal samples, qRT-PCR was performed using a Rotor-Gene Q 5plex HRM Platform (Qiagen). The 2-ΔCt method was used to calculate the relative gene expression levels and rice Ubiquitin (OsUBQ or OsRubQ1) gene was used as the internal control to normalize target gene expression.
14-day-old rice seedlings were transferred to new hydroponic pots containing fresh media with or without chemicals for 6 hours. SL biosynthetic (D27, D10, D17 and MAX1-Os900) gene expression were determined under −Pi conditions (phosphate deficient) with zaxinone (2.5 and 5 μM) treatment of both Nipponbare wild-type (WT) rice roots and zas mutant rice roots. The expression levels (1301) were detected by quantitative RT-PCR. Ubiquitin was used as a reference gene. Mock treatment (control) treatment consisted of 0.1% acetone. Bars (1302) show comparisons between the treatments and represent mean±SD (n=3). Decrease in SLs levels in the plants treated with zaxinone ranged from approximately 40% to 70%.
Background: Quantitative PCR measures a nucleic acid by following its amplification.

In the next assay the test system is Striga hermonthica. Kind of assay: Striga hermonthica infection in rice (pots with Striga infested soil). It is filed as in vivo, Striga hermonthica on rice cv. IAC-165. The conditions noted are these: 10 μM zaxinone. Here is the method:
About 10 mg (4000) of Striga seeds were thoroughly mixed in 2 L soil and sand mixture (1:1), and added to a 3 L plastic pot. The pots with Striga seeds were kept under moist conditions at 35° C. for 10 days. Five days-old three rice seedlings (Oryza sativa L. cv. IAC-165) were then planted in the middle of each pot. A stock of 10 mM of zaxinone was prepared by mixing with an emulsifier (cyclohexanone+Atlas G1086). Three days after rice planting, zaxinone was applied at 10 μM through 20 ml water in each pot. Zaxinone was applied twice a week for up-to five weeks. Striga emergences were recorded six weeks after rice planting.

For assay [1], the system named is mycorrhizal wild-type and zas mutant rice plants. Kind of assay: Zaxinone effect on mycorrhizal rice plants (phenotype and AM colonization). It is filed as in vivo, Oryza sativa Nipponbare. Here is the method: Seeds of WT (cv. Nipponbare) and zas mutant were germinated in pots containing sand and incubated for 10 days in a growth chamber under conditions having a 14 h light (23° C.)/10 h dark (21° C.) cycle. Plants used for mycorrhization were inoculated with Funelliformis mosseae (BEG 12, MycAgroLab, France) or Rhizophagus irregularis (INOQ GmbH, Germany) Both fungi inocula (25%) were mixed with sterile quartz sand and used for colonization. Plants were watered with a modified Long-Ashton (LA) solution containing 3.2 μM Na2HPO4·12H2O and were grown in a growth chamber under the 14 h light (24° C.)/10 h dark (20° C.) regime.
Wild-type and zas mycorrhizal plants were grown in sand and watered twice a week with different concentrations of zaxinone (5 μM; 0.5 μM; 50 nM) directly applied in the Long Ashton nutrient solution. Data were collected 35 days post germination (dpg).
Wild-type and zas mycorrhizal roots were stained with 0.1% cotton blue in lactic acid and the estimation of mycorrhizal parameters was performed using MYCOCALC. For the molecular analyses, roots were immediately frozen in liquid nitrogen and stored at −80° C.
Mycorrizhal plants were grown in sand and watered with Long Ashton solution (3.2 μM Pi) for five weeks post AM fungus inoculation. FIGS. 23A-23F show the effect of twice a week treatment with zaxinone (5 μM) for wild-type (WT) and zas mutant (zas) plants. Data are means±SE, n=9 plants. Different letters above the bars indicate significant differences according to Tukey's test (P<0.05).

The test system of assay [2] is Shiokari wild-type and ccd mutant seedlings (d17, d10, d3). The assay is described as follows: Zaxinone effect on root phenotypes of Shiokari wild-type and ccd mutant seedlings. It is filed as in vivo, rice (Shiokari). On the procedure: For investigation of the zaxinone effect on CCD mutant phenotypes, one week-old seedlings were grown hydroponically in Hoagland nutrient solution containing K2HPO4·2H2O (+Pi) for 3 weeks with 2.5 μM zaxinone treatment or Mock treatment (0.1% acetone). The solution was changed every other day, adding the chemical at each renewal. Plants grown without zaxinone served as the controls and phenotypic data were recorded.
The effect of zaxinone (2.5 μM) on root phenotypes of hydroponically grown Shiokari wild-type and ccd mutant seedlings was also studied. FIG. 16D is a visual determination of root growth with (2.5 μM) zaxinone added to the growth medium and without zaxinone (control) for Shiokari wild-type seedlings and ccd mutant seedlings, d17, d10 and d3. The roots of seedlings grown with zaxinone were visually determined to be increased over the controls, with the wild-type (WT) showing the greatest increase. The visual results are confirmed by the root length and root biomass measurements seen in graphs FIG. 16D.

Assay [3] deals with wild-type and zas mutant rice seedlings. The assay is described as follows: Rescue of zas mutant root phenotype, hydroponically grown rice seedlings. The conditions noted are these: hydroponic, 2.5 μM zaxinone. It is filed as in vivo, Oryza sativa Nipponbare. Here is the method: For rescue of zas mutant phenotype with zaxinone, one week-old seedlings were grown hydroponically in Hoagland nutrient solution containing K2HPO4·2H2O (+Pi) for 3 weeks with 2.5 μM zaxinone treatment or Mock treatment (0.1% acetone). The solution was changed every other day, adding the chemical at each renewal. Plants grown without zaxinone served as the controls and phenotypic data were recorded.
Phenotypic characteristics of hydroponically grown Nipponbare wild-type and zas mutant rice plants were examined to determine the effect of zaxinone treatment on plant growth. Data are means±SD [(FIG. 16A), n=12; (FIG. 16B), n=6; (FIG. 16C), n=4; (FIG. 16D), n=8; Con=Control, Zax=Zaxinone]. Different letters denote significant difference following a One-way ANOVA test (P<0.05).

Take `CC(=O)/C=C/C=C(C)/C=C/C1=C(C)C[C@@H](O)CC1(C)C` [zaxinone, 3-OH-β-apo-13-carotenone]: the “decrease of MAX1-Os900 relative expression vs mock” value was “approximately 75%” in the assay with MAX1-Os900 (WT rice roots, 2.5 μM zaxinone); approximately 60% in the assay on MAX1-Os900 (WT rice roots, 5.0 μM zaxinone); “approximately 43%” with MAX1-Os900 (zas mutant rice roots, 2.5 μM zaxinone); approximately 57% with MAX1-Os900 (zas mutant rice roots, 5.0 μM zaxinone). In addition, the MAX1-Os900 relative expression entry in the assay on MAX1-Os900 (WT rice roots, 2.5 μM zaxinone, WT mock approx. 1.0) is recorded as “approximately 0.25”; with MAX1-Os900 (WT rice roots, 5.0 μM zaxinone, WT mock approx. 1.0), “approximately 0.4”; in the assay on MAX1-Os900 (zas mutant rice roots, 2.5 μM zaxinone, zas mock approx. 2.1), “approximately 1.2”; in the assay on MAX1-Os900 (zas mutant rice roots, 5.0 μM zaxinone, zas mock approx. 2.1), “approximately 0.9”. Moreover, the “reduction of number of emerging Striga plants vs untreated control” value in the assay with Striga hermonthica (rice cv. IAC-165 in pots with Striga infested soil) is “around 80%”. The “number of emerging Striga plants” value in the assay on Striga hermonthica (six-week old rice cv. IAC-165 in soil, mock around 15-25) is on record as “less than 10”. For the same molecule, the AM colonization capacity result in assay [1] (5 μM zaxinone) is listed as “did not improve”. The “growth vs Mock treatment” value in assay [1] (WT mycorrhizal plants, 5 μM zaxinone twice a week, five weeks) is on record as “did not significantly differ”. In addition, the “crown root number, root biomass, shoot length and shoot biomass” value in assay [1] (zas mutant mycorrhizal plants, 5 μM zaxinone twice a week, five weeks) is listed as “significant increase”. For the same molecule, the “growth of roots in SL deficient mutants” value in assay [2] (SL biosynthesis and perception mutants) is on record as “did not promote the growth of roots”. In addition, the “root growth (root length and root biomass)” value in assay [2] (Shiokari wild-type and d17, d10, d3 seedlings, hydroponic, 2.5 μM zaxinone) was “increasing the root growth for all of the seedlings”. In assay [3] (wild type plants), the root growth entry was “increase in root growth”. The crown root length in assay [3] (zas mutant, three weeks, untreated 7-9 cm) is listed as 10-11 cm. The root biomass in assay [3] (zas mutant, three weeks, untreated 12-22 mg DW) was 28-35 mg DW. The crown root number in assay [3] (zas mutant, three weeks, untreated 20-23) was 27-32.
